# In patent EP4813403A1, “USE OF GLP-1R/GIPR DOUBLE-TARGET AGONIST IN PREPARING ANIMAL DRUG” (Hangzhou Zhongmeihuadong Pharmaceutical Co., Ltd., priority 2023, dated 2025):
# Experiments:
# [1] = Pharmacokinetics following single administration in SD rats; settings: male, Sprague-Dawley, rat, in vivo, sc, SD rats, subcutaneous injection, 50 nmol/kg
# Procedure, shortened: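 Male SD rats (230-268 g, n=3) dosed once at 50.0 nmol/kg s.c. or 25.0 nmol/kg i.v. Plasma proteins precipitated with acetonitrile containing internal standards; drug levels quantified by LC-MS/MS.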
# [2] = Pharmacokinetics in C57 mice; settings: in vivo; for MRT: C57, mouse; for AUC(0-t): read-out: AUC(0-t); for AUC(0-inf): read-out: AUC(0-∞); for half-life: read-out: T1/2 (converted)
# Method: After subcutaneous or intravenous administration to C57 mice, plasma was collected and the drug concentration in plasma was determined to illustrate the in vivo pharmacokinetic properties of the compound according to the present invention. […] 20.0 µL of thawed plasma sample was taken. 20 µL of 50% aqueous methanol solution (containing 100 ng mL^-1 Tolbutamide) and 60 µL of acetonitrile were added sequentially to precipitate protein. The mixture was vortexed for 5 minutes, and centrifuged at 4815 rpm for 8 minutes. 50.0 µL of the supernatant was taken, into which 50.0 µL of 0.5% aqueous formic acid solution was added. The mixture was vortexed for 5 minutes. 50 µL of the mixture solution was sampled and injected into the LC-MS/MS to determine the drug concentration in plasma. Based on the drug concentration in plasma of the compounds in C57 mice, the pharmacokinetic parameters were calculated by applying the software Winnolin 8.3 in a non-compartmental model, and the results were shown in Table 7 and Table 8 below. Table 7 Average Pharmacokinetic Parameters after Single Subcutaneous Administration to Mice
# db/db mice = test: Pharmacodynamic effects in db/db mice, single subcutaneous administration (blood glucose); assay type: in vivo; settings: single s.c. 10 nmol/kg
# Procedure, shortened: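 Male db/db mice aged 8-9 weeks, fed ad libitum, were grouped by initial glucose and body weight (n=6) and dosed once subcutaneously. Random blood glucose from tail tip was tracked over 0 to 120 hours against vehicle. Hypoglycemic duration is the longest time with a significant difference from vehicle (T-test, p<0.05).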
# human GLP-1R = human GLP-1R (Homo sapiens, UniProt P43220); test: In vitro binding activity to human GLP-1 receptor ([125I]GLP-1 displacement, crude cell membranes); design: expressed in transfected cells; settings: ratio of the Ki value of the endogenous ligand to the Ki value of the test compound; larger ratio = stronger binding
# [3] = mouse, sc, C57 mice, single subcutaneous administration
# [4] = mouse, C57 mice, single intravenous administration
# human GLP-1R, sequence (P43220 24-463): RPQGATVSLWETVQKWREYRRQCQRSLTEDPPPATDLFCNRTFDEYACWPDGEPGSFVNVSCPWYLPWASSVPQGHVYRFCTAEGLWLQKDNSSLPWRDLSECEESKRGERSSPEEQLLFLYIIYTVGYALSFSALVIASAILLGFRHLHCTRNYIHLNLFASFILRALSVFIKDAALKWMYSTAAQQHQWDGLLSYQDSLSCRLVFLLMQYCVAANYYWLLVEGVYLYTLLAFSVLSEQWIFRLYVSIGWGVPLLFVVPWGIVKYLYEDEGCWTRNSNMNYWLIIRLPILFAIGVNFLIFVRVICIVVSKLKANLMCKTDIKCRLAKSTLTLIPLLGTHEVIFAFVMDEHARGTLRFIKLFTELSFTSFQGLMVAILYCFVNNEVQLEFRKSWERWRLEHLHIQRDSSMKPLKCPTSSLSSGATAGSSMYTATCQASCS
smiles,measurement,setting,value
CC[C@H](C)[C@H](NC(=O)C(C)(C)NC(=O)[C@H](Cc1ccc(O)cc1)NC(=O)[C@H](CC(=O)O)NC(=O)[C@H](CO)NC(=O)[C@@H](NC(=O)C(C)(Cc1ccccc1)NC(=O)[C@@H](NC(=O)CNC(=O)[C@H](CCC(=O)O)NC(=O)C(C)(C)NC(=O)[C@@H](N)Cc1ccc(O)cc1)[C@@H](C)O)[C@@H](C)O)C(=O)NC(C)(C)C(=O)N[C@@H](CC(C)C)C(=O)N[C@@H](CC(=O)O)C(=O)N[C@@H](CCCCN)C(=O)N[C@@H](CCC(N)=O)C(=O)N[C@@H](C)C(=O)N[C@@H](CCC(N)=O)C(=O)N[C@@H](C)C(=O)N[C@@H](CCC(=O)O)C(=O)N[C@@H](Cc1ccccc1)C(=O)N[C@H](C(=O)N[C@@H](CCCCNC(=O)COCCOCCNC(=O)COCCOCCNC(=O)COCCOCCNC(=O)CC[C@H](NC(=O)CCCCCCCCCCCCCCCCCCCCC(=O)O)C(=O)O)C(=O)N[C@@H](Cc1c[nH]c2ccccc12)C(=O)N[C@@H](CC(C)C)C(=O)N[C@@H](CC(C)C)C(=O)N[C@@H](CCCCN)C(=O)NCC(=O)NCC(=O)N1CCC[C@H]1C(=O)N[C@@H](CO)C(=O)N[C@@H](CO)C(=O)NCC(=O)N[C@@H](C)C(=O)N1CCC[C@H]1C(=O)N1CCC[C@H]1C(=O)N1CCC[C@H]1C(=O)N[C@@H](CO)C(=O)N[C@@H](CCCCN)C(N)=O)C(C)C (stereo partly drawn) [Compound P016],AUC(0-inf),[1],5.07 ± 0.262 µM·h
same,AUC(0-t),[1],4.84 ± 0.27 µM·h
same,Cmax,[1],119 ± 7 nM
same,half-life,[1]; read-out: T1/2 (converted),14.1 ± 0.153 h
same,Tmax,[1]; read-out: Tmax,24 h
same,MRT,"[2]; iv, MRT(0-t)",19.9 h
same,MRT,"[2]; iv, MRT(0-∞)",26.6 h
same,MRT,"[2]; sc, MRT(0-t)",26 h
same,MRT,"[2]; sc, MRT(0-∞)",35.9 h
same,AUC(0-t),[2]; [3],15900 ng·h/mL
same,AUC(0-inf),[2]; [3],18200 ng·h/mL
same,Cmax,"[2]; mouse, sc, C57 mice, single subcutaneous administration, read-out: Cmax",434 ng/mL
same,half-life,[2]; [3],23.1 h
same,Tmax,"[2]; mouse, sc, C57 mice, single subcutaneous administration, read-out: Tmax",8 h
same,AUC(0-t),[2]; [4],11100 ng·h/mL
same,AUC(0-inf),[2]; [4],12100 ng·h/mL
same,C0,"[2]; mouse, C57 mice, single intravenous administration, read-out: C0",1150 ng/mL
same,half-life,[2]; [4],20.1 h
same,"inhibition of the blood glucose AUC, times of that of Tirzepatide",db/db mice,2.2 times
same,Hypoglycemic Duration,"db/db mice; Group 2, longest time with p<0.05 vs. vehicle",104 h
same,GLP-1R Ki ratio,human GLP-1R,0.63
